Measurements: patent US20240024273A1, “TOPICAL ADMINISTRATION OF 2-(DIETHYLAMINO)ETHYL 2-(4-ISOBUTYLPHENYL)PROPRIONATE FOR TREATMENT OF DISEASES” (TECHFIELDS PHARMA CO., LTD., priority 2020, published 2024)

Columns and labels:
[1] = system: Mild to Moderate Osteoarthritis of the Knee; experiment: Phase 2 study: use of rescue medication (paracetamol); assay type: in vivo, human; conditions: for Percentage of patients using rescue medication: only for knee pain
Procedure: Subjects taking nonsteroidal anti-inflammatory drugs (NSAID) or other analgesics may enroll in the trial, but will discontinue any analgesic therapy for the duration of the study, starting at least 4 days (or 5 half lives, whichever is longer) prior to administration of the first dose of study medication (i.e., for an analgesic washout period before Day 1). Subjects will be allowed to take rescue medication (up to six 325 mg tablets [total of 1950 mg] of acetaminophen per day; provided by the Sponsor) for residual knee or other body pain starting 4 days (or 5 half lives, whichever is longer) prior to administration of the first dose of study medication except during the 24 hours prior to Baseline (Day 1), Week 2, Week 4, Week 8, Week 12/end of study (EOS), and Follow up assessments.
Subjects will record the following information in a Daily Diary starting at Screening: the amount of knee pain in the target knee while walking during the preceding 24 hours (using a 100 mm visual analog scale [VAS]), the times and number of sprays for each administration of study medication, the times when the subject washes his/her knees and/or takes a shower, the number of tablets of rescue medication taken that day and the times taken, the reason for taking the rescue medication (e.g., knee pain, headache, low back pain), any other concomitant medications taken that day, and any AEs occurring that day.
3.9.3. Exploratory Efficacy Endpoints: • 1. Subject's global assessment of disease status of the target knee at 2, 4, 8, and 12 weeks of treatment; • 2. Investigator's global assessment of disease status of the target knee at 2, 4, 8, and 12 weeks of treatment; • 3. Subject's global assessment of response to therapy of the target knee at 2, 4, 8, and 12 weeks of treatment; • 4. Investigator's global assessment of response to therapy of the target knee at 2, 4, 8, and 12 weeks of treatment; • 5. Change from Baseline over time in VAS pain scores for the target knee from Daily Diary data; • 6. Amount of rescue medication (acetaminophen) consumed per day for target knee pain.
Zeidler thought that paracetamol as rescue medication in nearly all OA trials may be a missing link to explain at least partially the large placebo response in OA trials. (Henning Zeidler, Paracetamol and the Placebo Effect in Osteoarthritis Trials: A Missing Link? Pain Research and Treatment, Volume 2011, 1-6.) From published data, the difference of the used amount of paracetamol is very small between the placebo and active drug cohorts. […] (T. J. Schnitzer, A. Kivitz, H. Frayssinet, and B. Duquesroix, “Efficacy and safety of naproxcinod in the treatment of patients with osteoarthritis of the knee: a 13-week prospective, randomized, multicenter study.” Osteoarthritis and Cartilage, vol. 18, no. 5, pp. 629-639, 2010.) In this trial, NSAIDs or any analgesic therapy was discontinued for the duration of the study, starting at least 14 days (or 5 half lives, whichever is longer) prior to administration of the first dose of study medication (ie, for an analgesic washout period before Day 1). Subjects were allowed to take rescue medication (up to six 325 mg tablets [total of 1950 mg] of acetaminophen per day; provided by the Sponsor) for residual knee or other body pain starting at least 4 days (or 5 half lives, whichever is longer) prior to administration of the first dose of study medication except during the 24 hours prior to Baseline (Day 1), Week 2, Week 4, Week 8, Week 12/end of study (EOS), and Follow-up assessments.

[2] = system: osteoarthritis of the knee; experiment: Second Phase 2 study: WOMAC stiffness subscale score; assay type: in vivo, human; conditions: Low Dose (2 spray/knee, 8.75 mg/knee) Cohort
[3] = for all pain and other conditions, 17.5 mg/knee (BID), Week 12
[4] = for all pain and other conditions, 35 mg/knee (BID), Week 2
[5] = for all pain and other conditions, 35 mg/knee (BID), Week 4
[6] = for all pain and other conditions, 35 mg/knee (BID), Week 8
[7] = for all pain and other conditions, 35 mg/knee (BID), Week 12

## CCN(CC)CCOC(=O)C(C)c1ccc(CC(C)C)cc1 (centres unmarked) [2-(diethylamino)ethyl 2-(4-isobutylphenyl)propionate]
[1]; for all pain and other conditions, 17.5 mg/knee (BID), Week 8
  Rescue medication (paracetamol), % of decrease from baseline: 68.7%
[1]; [3]
  Daily amount of rescue medication (paracetamol): 69 mg/day/patient
  Rescue medication (paracetamol), % of decrease from baseline: 75.2%
[1]; for all pain and other conditions, 35 mg/knee (BID), Day −2 to day −5 (baseline)
  Daily amount of rescue medication (paracetamol): 310 mg/day/patient
[1]; [4]
  Daily amount of rescue medication (paracetamol): 171 mg/day/patient
  Rescue medication (paracetamol), % of decrease from baseline: 44.8%
[1]; [5]
  Daily amount of rescue medication (paracetamol): 158 mg/day/patient
  Rescue medication (paracetamol), % of decrease from baseline: 49.0%
[1]; [6]
  Daily amount of rescue medication (paracetamol): 111 mg/day/patient
  Rescue medication (paracetamol), % of decrease from baseline: 64.2%
[1]; [7]
  Daily amount of rescue medication (paracetamol): 94 mg/day/patient
  Rescue medication (paracetamol), % of decrease from baseline: 69.7%
[1]; for other conditions excluding knee pain, 8.75 mg/knee (BID), Day −2 to day −5 (baseline)
  Daily amount of rescue medication (paracetamol): 15 mg/day/patient
[1]; for other conditions excluding knee pain, 8.75 mg/knee (BID), Week 2
  Daily amount of rescue medication (paracetamol): 47 mg/day/patient
[1]; for other conditions excluding knee pain, 8.75 mg/knee (BID), Week 4
  Daily amount of rescue medication (paracetamol): 41 mg/day/patient
[1]; for other conditions excluding knee pain, 8.75 mg/knee (BID), Week 8
  Daily amount of rescue medication (paracetamol): 44 mg/day/patient
[1]; for other conditions excluding knee pain, 8.75 mg/knee (BID), Week 12
  Daily amount of rescue medication (paracetamol): 50 mg/day/patient
[1]; for other conditions excluding knee pain, 17.5 mg/knee (BID), Day −2 to day −5 (baseline)
  Daily amount of rescue medication (paracetamol): 35 mg/day/patient
[1]; for other conditions excluding knee pain, 17.5 mg/knee (BID), Week 2
  Daily amount of rescue medication (paracetamol): 50 mg/day/patient
[1]; for other conditions excluding knee pain, 17.5 mg/knee (BID), Week 4
  Daily amount of rescue medication (paracetamol): 48 mg/day/patient
[1]; for other conditions excluding knee pain, 17.5 mg/knee (BID), Week 8
  Daily amount of rescue medication (paracetamol): 33 mg/day/patient
[1]; for other conditions excluding knee pain, 17.5 mg/knee (BID), Week 12
  Daily amount of rescue medication (paracetamol): 13 mg/day/patient
[1]; for other conditions excluding knee pain, 35 mg/knee (BID), Day −2 to day −5 (baseline)
  Daily amount of rescue medication (paracetamol): 19 mg/day/patient
[1]; for other conditions excluding knee pain, 35 mg/knee (BID), Week 2
  Daily amount of rescue medication (paracetamol): 73 mg/day/patient
[1]; for other conditions excluding knee pain, 35 mg/knee (BID), Week 4
  Daily amount of rescue medication (paracetamol): 70 mg/day/patient
[1]; for other conditions excluding knee pain, 35 mg/knee (BID), Week 8
  Daily amount of rescue medication (paracetamol): 57 mg/day/patient
[1]; for other conditions excluding knee pain, 35 mg/knee (BID), Week 12
  Daily amount of rescue medication (paracetamol): 50 mg/day/patient
[1]; in vivo
  maximum decrease of rescue medication for all pain, pre-treatment to week 12: up to 75%
[1]; 8.75 mg/knee (BID), Day −2 to day −5 (baseline)
  Percentage of patients using rescue medication: 35.3%
[1]; 8.75 mg/knee (BID), Week 2
  Percentage of patients using rescue medication: 23.6%
[1]; 8.75 mg/knee (BID), Week 4
  Percentage of patients using rescue medication: 18.4%
[1]; 8.75 mg/knee (BID), Week 8
  Percentage of patients using rescue medication: 17.1%
[1]; 8.75 mg/knee (BID), Week 12
  Percentage of patients using rescue medication: 16.3%
[1]; 17.5 mg/knee (BID), Day −2 to day −5 (baseline)
  Percentage of patients using rescue medication: 24.0%
[1]; 17.5 mg/knee (BID), Week 2
  Percentage of patients using rescue medication: 11.3%
[1]; 17.5 mg/knee (BID), Week 4
  Percentage of patients using rescue medication: 8.4%
[1]; 17.5 mg/knee (BID), Week 8
  Percentage of patients using rescue medication: 7.2%
[1]; 17.5 mg/knee (BID), Week 12
  Percentage of patients using rescue medication: 6.5%
[1]; 35 mg/knee (BID), Day −2 to day −5 (baseline)
  Percentage of patients using rescue medication: 34.8%
[1]; 35 mg/knee (BID), Week 2
  Percentage of patients using rescue medication: 12.4%
[1]; 35 mg/knee (BID), Week 4
  Percentage of patients using rescue medication: 11.0%
[1]; 35 mg/knee (BID), Week 8
  Percentage of patients using rescue medication: 7.6%
[1]; 35 mg/knee (BID), Week 12
  Percentage of patients using rescue medication: 5.8%
[1]; pre-treatment to week 12
  maximum decrease in the use of rescue medication, paracetamol: 84.9%
[2]; Avg. of all patients (blinded), Follow-up
  WOMAC Joint Stiffness Subscale Score, Follow-up, Avg.: 41.4
[2]; individual patient (blinded), Day 1
  WOMAC Joint Stiffness Subscale Score, Day 1: 60.5
[2]; individual patient (blinded), Week 8
  WOMAC Joint Stiffness Subscale Score, Week 8: 64.5
